Entries after “also recorded” stand apart in the source; their conditions may differ.
Assays:
[1] = cited from earlier work
[2] = test system: contralateral nasolabial folds of subjects sensitive to glycolic acid; experiment: in-vivo sting test (sting/burn propensity and forced choice); details: for Effect on stinging/burning propensity of Base Formula A containing 8% glycolic acid (in words): substance added to the formulation, pH 3.8; for Effect on sting/irritation caused by weak carboxylic acids (in words, summary): summary of Examples 1-6
From the text: (§1) Procedure for in-vivo sting test: This was a randomized, double blind study where each subject evaluated one test formulation and a control formulation or two test formulations on contralateral nasolabial folds. […] A maximum of 20 qualified subjects (minimum of 15) were utilized in each subsequent test. One paired comparison was made on each testing day, with a minimum of 3 days between sting testing throughout the study. Subjects underwent a 15 second Ivory soap wash regime immediately prior to product testing for enhancing sting response. […] Study personnel then applied one test formulation and one control or test formulation simultaneously to the appropriate left/right test site, and gently but thoroughly rubbed in. Subjects compared the stinging potential of the two formulations, over a 7.5 minute period using a self-assessment questionnaire.
(§2) Sting/Burn Propensity: The degree of stinging/burning felt on the left and right inner cheek and crease of the nose was evaluated using the following scale at the times indicated in Tables below:
(§3) 0-no stinging/burning; 1-very slight stinging/burning; 2-slight stinging/burning; 3-moderate stinging/burning; 4-moderately high stinging/burning; 5-high stinging/burning; 6-extreme stinging/burning.
(§4) Determination of Statistical Significance: At each evaluation time point after baseline, the parametric paired t-test (two-tailed) was performed, to compare the extent of attribute change from baseline between each treatment comprising a paired comparison test, with subject acting as a block in these analyses. […] The test can be implemented using the SAS software procedure MEANS with the T and PRT options specified.
(§5) Statistical significance was determined at p≦0.1.

[3] = test system: procollagen I in neonatal human dermal fibroblasts; experiment: procollagen I production by fibroblasts (slot blot); assay type: cell-based; details: combination with glycolic acid
From the text: Collagen is a predominant skin protein. It is synthesized by fibroblasts in the dermis. The synthesis of collagen decreases with aging or photodamage. Collagen l is first made as a precursor molecule called Pro-collagen l. Increased production of procollagen 1 is a marker of an increased collagen level in response to a test compound application.
Method: Neonatal human dermal fibroblasts were purchased from Clonetics Corp., San Diego, Calif. All materials for cell culture were purchased from Life Technologies, NY. Cells (between passages 5-10) were seeded at a density of approximately 10,000/well in the inner 48 wells of a 96-well plate in DMEM (Dulbecco's Modified Eagle's Medium), high-glucose, supplemented with 2 mM L-glutamine, 10% fetal bovine serum, and antibiotic and antimycotic solutions. Cells were then grown to confluence for 2 days. At confluence, the medium was removed and cells were washed with serum-free DMEM, and each well dosed with 200 μl of a solution of a test compound in serum-free DMEM. Each dosing was replicated in the total of six wells. […]
For the analysis of procollagen I in the solutions, they were diluted in DMEM (approximately 20 μl sample in 200 μl DMEM). […] Percent increase was calculated as a ratio of optical density of cells treated with a test compound over control ×100.

[4] = test system: transglutaminase-K (Tgase K) in Normal Human keratinocytes; experiment: keratinocyte differentiation (transglutaminase absorbance / µg DNA); assay type: cell-based; details: combination with lactic acid
From the text: Keratinocytes, the major cell type in the epidermis, undergo a program of differentiation leading to formation of corneocytes which form the stratum corneum and provide a protective barrier against water loss and entry of harmful substances and pathogens. A prominent feature of keratinocyte differentiation is the formation of a highly insoluble, cross-linked envelope (CE) immediately beneath the keratinocyte plasma membrane. The production of keratinocyte CE is catalyzed by the enzyme transglutaminase-K (Tgase K) which cross-links certain precursor proteins in the cell. […] Therefore, agents that increase Tgase-K activity have the potential of providing benefits to the skin.
Method: Normal Human keratinocytes were seeded in 96-well plates at 4000 cells/well and grown in Keratinocyte Growth Medium (KGM) obtained from Clonetics Corp. Cells were treated with test compounds at various concentrations for 48 hours with an intermittent change of medium after 24 hrs. 6 replicate wells were used for each test. At the end of the incubation period, two parameters were measured on the cells—I. DNA and II. […]
I. DNA was measured using a method described by Rago et al Anal. Biochem 191:31-34,1990. […] Readings were then taken on Millipore Fluorescence Miicroplate Reader (ex/em 360/450 nm). Amount of DNA per well (α) was calculated using standards.
II. […] Absorbance was measured at 490nm (b). […]

[5] = test system: skin; details: LAREX publication Mar. 23, 1998; cited from earlier work
[6] = test system: photodamaged skin on both forearms; experiment: 12-week bilateral comparison use test, clinical assessment of photodamaged skin; assay type: in vivo, human; details: summary statement
Method: Procedure: The study was a 12-week bilateral comparison use test of two formulations. […] At Baseline (week 0), week 4, 8 and 12, visual evaluation was conducted. Product assignment was randomized and balanced for left/right usage across the subject pool. Subjects were instructed to use the appropriate product to the left/right arms at home and applied approximately 1 gram twice daily for 12 weeks. A minimum of 15 qualified subjects per paired comparison completed the study. […] 0=none […] 4-6=moderate 7-9=severe The following paired comparisons were made: […] The Wilcoxon signed rank test, Pratt-Lehmann version, was used to statistically assess the magnitude of average change from baseline attributable to treatment with subject acting as a block in this analysis. In addition, to compare the extent of change from baseline between the two treatments within a cell, the nonparametric Wilcoxon signed-rank test, Pratt-Lehmann version, was also used.

[7] = test system: contralateral nasolabial folds of subjects sensitive to glycolic acid; details: in vivo, pH 3.8
From the text: as §1, §2, §3, §4, §5

CC(O)CC(=O)O (stereo not drawn) [beta-hydroxybutyric]
pKa [1]: 4.7

C[C@]12CCC(=O)C=C1CC[C@@H]1[C@@H]2[C@@H](O)C[C@@]2(C)[C@H]1CC[C@]2(O)C(=O)CO [hydrocortisone, Hydrocortisone]
Effect on stinging/burning propensity of Base Formula A containing 8% glycolic acid (in words) [2]: neither hydrocortisone nor arabinogalactan reduced the sting
Effect on sting/irritation caused by weak carboxylic acids (in words, summary) [2]: did not reduce the sting caused by weak carboxylic acids

Arabinogalactan
Effect on procollagen I levels (in words) [3]: did not
Effect on keratinocyte differentiation (in words) [4]: did not
Increase of exfoliation performance of a skin care lotion containing alpha hydroxy acid [5]: 80%
Irritation of the skin care lotion containing alpha hydroxy acid (in words) [5]: without increased irritation
Effect on stinging/burning propensity of Base Formula A containing 8% glycolic acid (in words) [2]: neither hydrocortisone nor arabinogalactan reduced the sting; also recorded: slightly enhanced the sting
Effect on sting/irritation caused by weak carboxylic acids (in words, summary) [2]: does not have this effect; also recorded: did not reduce the sting caused by weak carboxylic acids

Dextran
Effect on procollagen I levels (in words) [3]: significant increase in procollagen l levels
Effect on anti-aging efficacy of hydroxy acids (in words) [6]: enhances the anti-aging efficacy of hydroxy acids
Effect on stinging/burning propensity of Base Formula B containing 8% glycolic acid (in words) [7]: reduced the stinging/burning propensity
Effect on sting/irritation caused by weak carboxylic acids (in words, summary) [2]: decrease irritation; also recorded: reduced the sting caused by weak acids

Maltodextrin
Effect on sting/irritation caused by weak carboxylic acids (in words, summary) [2]: decrease irritation
